# Test results: article PMC7933434, “Entropy-driven binding of gut bacterial β-glucuronidase inhibitors ameliorates irinotecan-induced toxicity” (Communications Biology, 2021)
# “And” between values parts separate entries of the source, which are not always exact repeats. Identical values can stand only once. “Also recorded” adds a separate entry of the source.
# Columns and labels:
# [1] = system: GM637 non-cancerous human fibroblasts; test: In vitro cytotoxicity, [3H]thymidine incorporation, GM637; type: cell-based; conditions: GM637 cells; 0.001–100 μM for 24 h
# BALB/c mice [2] = test: In vivo diarrhea test (CPT-11); design: species or system mouse; conditions: BALB/c mice, 10 days
# BALB/c mice [3] = test: Colon histology (hematoxylin and eosin) after oral gavage; type: in vivo, mouse; conditions: female BALB/c mice; oral gavage for 5 days; 3 at 37.5 mg per kg body weight, ASN03273363 at 65 mg
# [4] = system: intestinal bacterial GUSs; test: In vivo imaging of GUS activity (FDGiCu probe); design: species or system mouse; conditions: BALB/c mice; oral gavage of inhibitor, then 500 µg FDGiCu intravenously
# Description: . […] The mice were then sacrificed and the intestines removed. […] In addition, we performed real-time in vivo gastrointestinal inhibition of bacterial GUSs using whole-body in vivo imaging (Fig. 4a and Supplementary Figs. 11, 12). The mice were gavaged in the same manner as described above. Following the final gavage, 500 µg of FDGiCu (fluorescein-di-β-D-glucuronide as a non-fluorescent probe) was injected intravenously. Upon digestion by intestinal bacterial GUSs, FDGiCu is hydrolyzed to produce fluorescein (as the hydrolyzed product) that can be detected as fluorescence in the intestinal region. […]. Mice were treated for 10 days. […]
# Mice were given 3 via oral gavage. […] The hydrolysis product (fluorescein) generated in the gut was quantified over a 2 h period by in vivo imaging (excitation 465 nm, emission 520 nm). The maximum fluorescein fluorescence was observed 60 min after injection of vehicle control. At 2 h post injection, most of the FDGiCu has been excreted and thus fluorescence is reduced. The region of interest (ROI) was analyzed with Living Image Software. b Effect of inhibitor 3 to protect against diarrhea caused by CPT-11. Diarrhea severity was scored as described in methods. […] The intensity of hydrolyzed fluorescein was assessed by in vivo imaging system (Caliper Life Sciences) and quantified as GUS activity. […]
# [5] = system: H184B5F5/M10 non-cancerous human mammary epithelial cells; test: In vitro cytotoxicity, [3H]thymidine incorporation, H184B5F5/M10; type: cell-based; conditions: 0.001–100 μM for 24 h
# HsGUS (human GUS) = biological target: T1, HsGUS (human GUS) (Homo sapiens, UniProt P08236); test: GUS inhibition assay, hydrolysis of 4-methylumbelliferyl-β-glucuronide, HsGUS; type: biochemical; design: GUS activity (hydrolysis rate of MUG): unit not given here
# T1 construct: HsGUS was prepared as described[37]; made in house
# T1 sequence (P08236 23-651): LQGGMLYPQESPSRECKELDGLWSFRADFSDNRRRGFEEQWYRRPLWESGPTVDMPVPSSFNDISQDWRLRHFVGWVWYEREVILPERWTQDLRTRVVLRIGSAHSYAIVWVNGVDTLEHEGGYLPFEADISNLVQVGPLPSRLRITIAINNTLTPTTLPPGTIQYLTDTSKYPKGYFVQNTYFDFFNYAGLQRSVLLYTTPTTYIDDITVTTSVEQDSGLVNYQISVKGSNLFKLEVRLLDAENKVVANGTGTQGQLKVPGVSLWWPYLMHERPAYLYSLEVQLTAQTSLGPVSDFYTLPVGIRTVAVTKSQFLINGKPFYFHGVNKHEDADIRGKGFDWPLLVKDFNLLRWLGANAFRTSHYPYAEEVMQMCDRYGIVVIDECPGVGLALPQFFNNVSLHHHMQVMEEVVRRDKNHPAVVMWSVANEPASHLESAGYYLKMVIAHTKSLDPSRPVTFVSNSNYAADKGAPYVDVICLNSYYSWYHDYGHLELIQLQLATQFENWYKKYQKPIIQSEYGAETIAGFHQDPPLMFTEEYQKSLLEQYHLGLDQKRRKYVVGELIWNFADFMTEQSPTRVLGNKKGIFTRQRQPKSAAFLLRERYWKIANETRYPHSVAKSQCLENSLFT
structure (smiles),measurement,setting,value
"CCCCCC[C@@H]1NC[C@@H](O)[C@H](O)[C@H]1C(=O)O [Inhibitor 3, C6-hexyl UIFG]",cytotoxicity,[1],No cytotoxicity was evident
same,diarrhea,BALB/c mice [2]; CPT-11 30 mg per kg daily with inhibitor 3 5.8 µg orally twice per day,diarrhea was significantly suppressed; also recorded: significantly reduced diarrhea
same,diarrhea,"BALB/c mice [2]; inhibitor 3 only, 5.8 µg given orally twice per day",neither the negative control nor inhibitor 3 caused diarrhea
same,health of the epithelial layer and intestinal glandular structure (hematoxylin and eosin staining),BALB/c mice [3],neither compound affected the health of the epithelial layer or the intestinal glandular structure
same,fluorescein fluorescence in the intestinal region (gut bacterial GUS activity),[4],Reduced fluorescence
same,cytotoxicity,[5],No cytotoxicity was evident
same,Ki,"HsGUS (human GUS); HsGUS, 50 mM sodium acetate pH 4.5, 37 °C",5.3 ± 0.9 µM
same,GUS activity (hydrolysis rate of MUG),"HsGUS (human GUS); [Inhibitor 3] =0.15625 μM, [MUG] 0.1 mM",771.278 and 806.238
same,GUS activity (hydrolysis rate of MUG),"HsGUS (human GUS); [Inhibitor 3] =0.15625 μM, [MUG] 0.2 mM",1372.81 and 1460.04
same,GUS activity (hydrolysis rate of MUG),"HsGUS (human GUS); [Inhibitor 3] =0.15625 μM, [MUG] 0.4 mM",2346.7 and 2406.16
same,GUS activity (hydrolysis rate of MUG),"HsGUS (human GUS); [Inhibitor 3] =0.15625 μM, [MUG] 0.6 mM",2899.99 and 3077.74
same,GUS activity (hydrolysis rate of MUG),"HsGUS (human GUS); [Inhibitor 3] =0.15625 μM, [MUG] 0.8 mM",3398.11 and 3693.06
same,GUS activity (hydrolysis rate of MUG),"HsGUS (human GUS); [Inhibitor 3] =0.15625 μM, [MUG] 1.2 mM",4234.64 and 3962.7
same,GUS activity (hydrolysis rate of MUG),"HsGUS (human GUS); [Inhibitor 3] =0.15625 μM, [MUG] 1.6 mM",4964.29 and 4569.67
same,GUS activity (hydrolysis rate of MUG),"HsGUS (human GUS); [Inhibitor 3] =0.15625 μM, [MUG] 2 mM",5606.01 and 4919.37
same,GUS activity (hydrolysis rate of MUG),"HsGUS (human GUS); [Inhibitor 3] =0.3125 μM, [MUG] 0.1 mM",857.043 and 831.938
same,GUS activity (hydrolysis rate of MUG),"HsGUS (human GUS); [Inhibitor 3] =0.3125 μM, [MUG] 0.2 mM",1433.02 and 1411.42
same,GUS activity (hydrolysis rate of MUG),"HsGUS (human GUS); [Inhibitor 3] =0.3125 μM, [MUG] 0.4 mM",2271.61 and 2263.8
same,GUS activity (hydrolysis rate of MUG),"HsGUS (human GUS); [Inhibitor 3] =0.3125 μM, [MUG] 0.6 mM",2953.53 and 2923.55
same,GUS activity (hydrolysis rate of MUG),"HsGUS (human GUS); [Inhibitor 3] =0.3125 μM, [MUG] 0.8 mM",3510.33 and 3469.47
same,GUS activity (hydrolysis rate of MUG),"HsGUS (human GUS); [Inhibitor 3] =0.3125 μM, [MUG] 1.2 mM",4268.51 and 4308.7
same,GUS activity (hydrolysis rate of MUG),"HsGUS (human GUS); [Inhibitor 3] =0.3125 μM, [MUG] 1.6 mM",4927.41 and 4670.47
same,GUS activity (hydrolysis rate of MUG),"HsGUS (human GUS); [Inhibitor 3] =0.3125 μM, [MUG] 2 mM",5186.78 and 5296.26
same,GUS activity (hydrolysis rate of MUG),"HsGUS (human GUS); [Inhibitor 3] =0.625 μM, [MUG] 0.1 mM",778.258 and 858.783
same,GUS activity (hydrolysis rate of MUG),"HsGUS (human GUS); [Inhibitor 3] =0.625 μM, [MUG] 0.2 mM",1379.09 and 1422.22
same,GUS activity (hydrolysis rate of MUG),"HsGUS (human GUS); [Inhibitor 3] =0.625 μM, [MUG] 0.4 mM",2137.64 and 2310.12
same,GUS activity (hydrolysis rate of MUG),"HsGUS (human GUS); [Inhibitor 3] =0.625 μM, [MUG] 0.6 mM",2842.46 and 2976.65
same,GUS activity (hydrolysis rate of MUG),"HsGUS (human GUS); [Inhibitor 3] =0.625 μM, [MUG] 0.8 mM",3348.75 and 3351.68
same,GUS activity (hydrolysis rate of MUG),"HsGUS (human GUS); [Inhibitor 3] =0.625 μM, [MUG] 1.2 mM",4293.66 and 3890.63
same,GUS activity (hydrolysis rate of MUG),"HsGUS (human GUS); [Inhibitor 3] =0.625 μM, [MUG] 1.6 mM",4573.95 and 4600.88
same,GUS activity (hydrolysis rate of MUG),"HsGUS (human GUS); [Inhibitor 3] =0.625 μM, [MUG] 2 mM",5372.6 and 4990.92
same,GUS activity (hydrolysis rate of MUG),"HsGUS (human GUS); [Inhibitor 3] =1.25 μM, [MUG] 0.1 mM",717.04 and 716.519
same,GUS activity (hydrolysis rate of MUG),"HsGUS (human GUS); [Inhibitor 3] =1.25 μM, [MUG] 0.2 mM",1240.56 and 1222.88
same,GUS activity (hydrolysis rate of MUG),"HsGUS (human GUS); [Inhibitor 3] =1.25 μM, [MUG] 0.4 mM",2023.29 and 2076.53
same,GUS activity (hydrolysis rate of MUG),"HsGUS (human GUS); [Inhibitor 3] =1.25 μM, [MUG] 0.6 mM",2757.57 and 2739.69
same,GUS activity (hydrolysis rate of MUG),"HsGUS (human GUS); [Inhibitor 3] =1.25 μM, [MUG] 0.8 mM",3062.28 and 3123.61
same,GUS activity (hydrolysis rate of MUG),"HsGUS (human GUS); [Inhibitor 3] =1.25 μM, [MUG] 1.2 mM",3822.55 and 3852.43
same,GUS activity (hydrolysis rate of MUG),"HsGUS (human GUS); [Inhibitor 3] =1.25 μM, [MUG] 1.6 mM",4324.26 and 4371.34
same,GUS activity (hydrolysis rate of MUG),"HsGUS (human GUS); [Inhibitor 3] =1.25 μM, [MUG] 2 mM",5149.01 and 5020.2
same,GUS activity (hydrolysis rate of MUG),"HsGUS (human GUS); [Inhibitor 3] =2.5 μM, [MUG] 0.1 mM",605.275 and 587.992
same,GUS activity (hydrolysis rate of MUG),"HsGUS (human GUS); [Inhibitor 3] =2.5 μM, [MUG] 0.2 mM",1017.03 and 1026.81
same,GUS activity (hydrolysis rate of MUG),"HsGUS (human GUS); [Inhibitor 3] =2.5 μM, [MUG] 0.4 mM",1798.51 and 1698.98
same,GUS activity (hydrolysis rate of MUG),"HsGUS (human GUS); [Inhibitor 3] =2.5 μM, [MUG] 0.6 mM",2384.66 and 2417.17
same,GUS activity (hydrolysis rate of MUG),"HsGUS (human GUS); [Inhibitor 3] =2.5 μM, [MUG] 0.8 mM",2879.78 and 2802.26
same,GUS activity (hydrolysis rate of MUG),"HsGUS (human GUS); [Inhibitor 3] =2.5 μM, [MUG] 1.2 mM",3545.79 and 3649.82
same,GUS activity (hydrolysis rate of MUG),"HsGUS (human GUS); [Inhibitor 3] =2.5 μM, [MUG] 1.6 mM",4144.07 and 4075.98
same,GUS activity (hydrolysis rate of MUG),"HsGUS (human GUS); [Inhibitor 3] =2.5 μM, [MUG] 2 mM",4744.38 and 4849.33
same,GUS activity (hydrolysis rate of MUG),"HsGUS (human GUS); [Inhibitor 3] =3.75 μM, [MUG] 0.1 mM",572.514 and 563.082
same,GUS activity (hydrolysis rate of MUG),"HsGUS (human GUS); [Inhibitor 3] =3.75 μM, [MUG] 0.2 mM",956.564 and 935.374
same,GUS activity (hydrolysis rate of MUG),"HsGUS (human GUS); [Inhibitor 3] =3.75 μM, [MUG] 0.4 mM",1708.56 and 1611.49
same,GUS activity (hydrolysis rate of MUG),"HsGUS (human GUS); [Inhibitor 3] =3.75 μM, [MUG] 0.6 mM",2310.6 and 2247.59
same,GUS activity (hydrolysis rate of MUG),"HsGUS (human GUS); [Inhibitor 3] =3.75 μM, [MUG] 0.8 mM",2878.65 and 2643.42
same,GUS activity (hydrolysis rate of MUG),"HsGUS (human GUS); [Inhibitor 3] =3.75 μM, [MUG] 1.2 mM",3484.96 and 3524
same,GUS activity (hydrolysis rate of MUG),"HsGUS (human GUS); [Inhibitor 3] =3.75 μM, [MUG] 1.6 mM",3945.8 and 4134.14
same,GUS activity (hydrolysis rate of MUG),"HsGUS (human GUS); [Inhibitor 3] =3.75 μM, [MUG] 2 mM",4453.48 and 4566.78
